These results are taken from ChEMBL document CHEMBL3259801, “Design and synthesis of new vancomycin derivatives” (Bioorg Med Chem Lett, 2014).

Usually IC50 stands for the point on the concentration scale where inhibition reaches its midpoint.

Test [1] concerns Staphylococcus aureus. The test is described as follows: Antibacterial activity against vancomycin-sensitive Staphylococcus aureus Newman assessed as inhibition of bacterial growth after 16 hrs. Format: functional, organism-based.
Test [2] relates to Staphylococcus aureus. The test can be described thus: Antibacterial activity against vancomycin-intermediate resistant Staphylococcus aureus Mu50 assessed as inhibition of bacterial growth after 16 hrs. Format: functional, organism-based. Conditions: Mu50, 16 h.

The structures appear in SMILES notation. In brackets after ≈: the same amount, converted by molar mass.

Consider `CCCCOC(CN[C@@]1(C)C[C@H](O[C@H]2[C@H](Oc3c4cc5cc3Oc3ccc(cc3Cl)[C@@H](O)[C@@H](NC(=O)[C@@H](CC(C)C)NC)C(=O)N[C@@H](CC(N)=O)C(=O)N[C@H]5C(=O)N[C@H]3C(=O)N[C@H](C(=O)N[C@H](C(=O)O)c5cc(O)cc(O)c5-c5cc3ccc5O)[C@H](O)c3ccc(c(Cl)c3)O4)O[C@H](CO)[C@@H](O)[C@@H]2O)O[C@@H](C)[C@H]1O)C(=O)OC` (stereo not given in full), for which the IC50 is 16 µg/mL (≈ 9.95 µM) with Staphylococcus aureus [1] and 64 µg/mL (≈ 39.8 µM) in the test with Staphylococcus aureus [2].

In the case of `CN[C@H](CC(C)C)C(=O)N[C@H]1C(=O)N[C@@H](CC(N)=O)C(=O)N[C@H]2C(=O)N[C@H]3C(=O)N[C@H](C(=O)N[C@H](C(=O)O)c4cc(O)cc(O)c4-c4cc3ccc4O)[C@H](O)c3ccc(c(Cl)c3)Oc3cc2cc(c3O[C@@H]2O[C@H](CO)[C@@H](O)[C@H](O)[C@H]2O[C@H]2C[C@](C)(NCC(OCc3ccc(-c4ccc(Cl)cc4)cc3)C(=O)OC)[C@H](O)[C@H](C)O2)Oc2ccc(cc2Cl)[C@H]1O` (stereo not given in full), the half-maximal inhibitory concentration (IC50) is under 0.125 µg/mL in the test on Staphylococcus aureus [1] and 2 µg/mL (≈ 1.14 µM) in the test with Staphylococcus aureus [2].

Regarding `CN[C@H](CC(C)C)C(=O)N[C@H]1C(=O)N[C@@H](CC(N)=O)C(=O)N[C@H]2C(=O)N[C@H]3C(=O)N[C@H](C(=O)N[C@H](C(=O)O)c4cc(O)cc(O)c4-c4cc3ccc4O)[C@H](O)c3ccc(c(Cl)c3)Oc3cc2cc(c3O[C@@H]2O[C@H](CO)[C@@H](O)[C@H](O)[C@H]2O[C@H]2C[C@](C)(N)[C@H](O)[C@H](C)O2)Oc2ccc(cc2Cl)[C@H]1O` [VANCOMYCIN], the IC50 in the test with Staphylococcus aureus [1] stood at 2 µg/mL (≈ 1.38 µM); in the test on Staphylococcus aureus [2], 8 µg/mL (≈ 5.52 µM).

Take `CN[C@H](CC(C)C)C(=O)N[C@H]1C(=O)N[C@@H](CC(N)=O)C(=O)N[C@H]2C(=O)N[C@H]3C(=O)N[C@H](C(=O)N[C@H](C(=O)O)c4cc(O)cc(O)c4-c4cc3ccc4O)[C@H](O)c3ccc(c(Cl)c3)Oc3cc2cc(c3O[C@@H]2O[C@H](CO)[C@@H](O)[C@H](O)[C@H]2O[C@H]2C[C@](C)(NCc3ccc(-c4ccc(Cl)cc4)cc3)[C@H](O)[C@H](C)O2)Oc2ccc(cc2Cl)[C@H]1O`: the IC50 is under 0.125 µg/mL in the test on Staphylococcus aureus [1] and 2 µg/mL (≈ 1.21 µM) in the test with Staphylococcus aureus [2].

For the molecule `CN[C@H](CC(C)C)C(=O)N[C@H]1C(=O)N[C@@H](CC(N)=O)C(=O)N[C@H]2C(=O)N[C@H]3C(=O)N[C@H](C(=O)N[C@H](C(=O)O)c4cc(O)cc(O)c4-c4cc3ccc4O)[C@H](O)c3ccc(c(Cl)c3)Oc3cc2cc(c3O[C@@H]2O[C@H](CO)[C@@H](O)[C@H](O)[C@H]2O[C@H]2C[C@](C)(NCC(OCc3ccccc3)C(=O)OC)[C@H](O)[C@H](C)O2)Oc2ccc(cc2Cl)[C@H]1O` (stereo not given in full), the IC50 turned out to be 8 µg/mL (≈ 4.87 µM) with Staphylococcus aureus [1] and 32 µg/mL (≈ 19.5 µM) with Staphylococcus aureus [2].

Regarding `CN[C@H](CC(C)C)C(=O)N[C@H]1C(=O)N[C@@H](CC(N)=O)C(=O)N[C@H]2C(=O)N[C@H]3C(=O)N[C@H](C(=O)N[C@H](C(=O)O)c4cc(O)cc(O)c4-c4cc3ccc4O)[C@H](O)c3ccc(c(Cl)c3)Oc3cc2cc(c3O[C@@H]2O[C@H](CO)[C@@H](O)[C@H](O)[C@H]2O[C@H]2C[C@](C)(NCC(OCc3ccc(-c4ccc(Cl)cc4)cc3)C(=O)O)[C@H](O)[C@H](C)O2)Oc2ccc(cc2Cl)[C@H]1O` (stereo not given in full), the 50% inhibitory concentration (IC50) in the test on Staphylococcus aureus [1] was under 0.125 µg/mL; with Staphylococcus aureus [2], 2 µg/mL (≈ 1.15 µM).

On to `CCCCCCOC(CN[C@@]1(C)C[C@H](O[C@H]2[C@H](Oc3c4cc5cc3Oc3ccc(cc3Cl)[C@@H](O)[C@@H](NC(=O)[C@@H](CC(C)C)NC)C(=O)N[C@@H](CC(N)=O)C(=O)N[C@H]5C(=O)N[C@H]3C(=O)N[C@H](C(=O)N[C@H](C(=O)O)c5cc(O)cc(O)c5-c5cc3ccc5O)[C@H](O)c3ccc(c(Cl)c3)O4)O[C@H](CO)[C@@H](O)[C@@H]2O)O[C@@H](C)[C@H]1O)C(=O)O` (stereo not given in full), for which the IC50 with Staphylococcus aureus [1] amounted to 4 µg/mL (≈ 2.47 µM); in the test with Staphylococcus aureus [2], 8 µg/mL (≈ 4.93 µM).

For `CN[C@H](CC(C)C)C(=O)N[C@H]1C(=O)N[C@@H](CC(N)=O)C(=O)N[C@H]2C(=O)N[C@H]3C(=O)N[C@H](C(=O)N[C@H](C(=O)O)c4cc(O)cc(O)c4-c4cc3ccc4O)[C@H](O)c3ccc(c(Cl)c3)Oc3cc2cc(c3O[C@@H]2O[C@H](CO)[C@@H](O)[C@H](O)[C@H]2O[C@H]2C[C@](C)(NCC(OCc3ccccc3)C(=O)O)[C@H](O)[C@H](C)O2)Oc2ccc(cc2Cl)[C@H]1O` (stereo not given in full), the IC50 in the test with Staphylococcus aureus [1] worked out at 16 µg/mL (≈ 9.83 µM); in the test with Staphylococcus aureus [2], 64 µg/mL (≈ 39.3 µM).

Regarding `CCCCOC(CN[C@@]1(C)C[C@H](O[C@H]2[C@H](Oc3c4cc5cc3Oc3ccc(cc3Cl)[C@@H](O)[C@@H](NC(=O)[C@@H](CC(C)C)NC)C(=O)N[C@@H](CC(N)=O)C(=O)N[C@H]5C(=O)N[C@H]3C(=O)N[C@H](C(=O)N[C@H](C(=O)O)c5cc(O)cc(O)c5-c5cc3ccc5O)[C@H](O)c3ccc(c(Cl)c3)O4)O[C@H](CO)[C@@H](O)[C@@H]2O)O[C@@H](C)[C@H]1O)C(=O)O` (stereo not given in full), the IC50 in the test on Staphylococcus aureus [1] worked out at 64 µg/mL (≈ 40.2 µM); in the test on Staphylococcus aureus [2], 128 µg/mL (≈ 80.3 µM).

Take `CCCCCCOC(CN[C@@]1(C)C[C@H](O[C@H]2[C@H](Oc3c4cc5cc3Oc3ccc(cc3Cl)[C@@H](O)[C@@H](NC(=O)[C@@H](CC(C)C)NC)C(=O)N[C@@H](CC(N)=O)C(=O)N[C@H]5C(=O)N[C@H]3C(=O)N[C@H](C(=O)N[C@H](C(=O)O)c5cc(O)cc(O)c5-c5cc3ccc5O)[C@H](O)c3ccc(c(Cl)c3)O4)O[C@H](CO)[C@@H](O)[C@@H]2O)O[C@@H](C)[C@H]1O)C(=O)OC` (stereo not given in full): the IC50 with Staphylococcus aureus [1] was found to be 2 µg/mL (≈ 1.22 µM); with Staphylococcus aureus [2] it was 4 µg/mL (≈ 2.45 µM).
